Test results as given in patent US10150758B2, “PRMT5 inhibitors and uses thereof” (Epizyme, Inc., priority 2012, dated 2018).

Tested on: symmetric di-methyl arginine in Z-138 cells
Test: Z-138 Methylation Assay (In Cell Western for symmetric di-methyl arginine and DNA content)
Type: cell-based
Settings: Homo sapiens, 96 hours incubation, read-out: ICW EC50
Text: [formula] [formula] Where top and bottom are the normally allowed to float, but may be fixed at 100 or 0 respectively in a 3-parameter fit. The Hill Coefficient normally allowed to float but may also be fixed at 1 in a 3-parameter fit. Y is the % inhibition and X is the compound concentration. Z-138 Methylation Assay
Z-138 suspension cells were purchased from ATCC (American Type Culture Collection, Manassas, Va.). RPMI/Glutamax medium, penicillin-streptomycin, heat inactivated fetal bovine serum, and D-PBS were purchased from Life Technologies, Grand Island, N.Y., USA. Odyssey blocking buffer, 800CW goat anti-rabbit IgG (H+L) antibody, and Licor Odyssey infrared scanner were purchased from Licor Biosciences, Lincoln, Nebr., USA. Symmetric di-methyl arginine antibody was purchased from EMD Millipore, Billerica, Mass., USA. 16% Paraformaldehyde was purchased from Electron Microscopy Sciences, Hatfield, Pa., USA.
Z-138 suspension cells were maintained in growth medium (RPMI 1640 supplemented with 10% v/v heat inactivated fetal bovine serum and 100 units/mL penicillin-streptomycin) and cultured at 37° C. under 5% CO2.
Cell Treatment, in Cell Western (ICW) for Detection of Symmetric Di-Methyl Arginine and DNA Content.
Z-138 cells were seeded in assay medium at a concentration of 50,000 cells per mL to a 384-well cell culture plate with 50 μL per well. Compound (100 nL) from 384 well source plates was added directly to 384 well cell plate. Plates were incubated at 37° C., 5% CO2 for 96 hours. After four days of incubation, 40 μL of cells from incubated plates were added to poly-D-lysine coated 384 well culture plates (BD Biosciences 356697). Plates were incubated at room temperature for 30 minutes then incubated at 37° C., 5% CO2 for 5 hours. After the incubation, 40 μL per well of 8% paraformaldehyde in PBS (16% paraformaldahyde was diluted to 8% in PBS) was added to each plate and incubated for 30 minutes. Plates were transferred to a Biotek 405 plate washer and washed 5 times with 100 μL per well of wash buffer (1×PBS with 0.1% Triton X-100 (v/v)). Next 30 μL per well of Odyssey blocking buffer were added to each plate and incubated 1 hour at room temperature. Blocking buffer was removed and 20 μL per well of primary antibody was added (symmetric di-methyl arginine diluted 1:100 in Odyssey buffer with 0.1% Tween 20 (v/v)) and plates were incubated overnight (16 hours) at 4° C. Plates were washed 5 times with 100 μL per well of wash buffer. Next 20 μL per well of secondary antibody was added (1:200 800CW goat anti-rabbit IgG (H+L) antibody, 1:1000 DRAQ5 (Biostatus limited) in Odyssey buffer with 0.1% Tween 20 (v/v)) and incubated for 1 hour at room temperature. The plates were washed 5 times with 100 μL per well wash buffer then 1 time with 100 μL per well of water. Plates were allowed to dry at room temperature then imaged on the Licor Odyssey machine which measures integrated intensity at 700 nm and 800 nm wavelengths. Both 700 and 800 channels were scanned.
First, the ratio for each well was determined by:
Each plate included fourteen control wells of DMSO only treatment (minimum inhibition) as well as fourteen control wells for maximum inhibition treated with 3 μM of a reference compound (Background wells). The average of the ratio values for each control type was calculated and used to determine the percent inhibition for each test well in the plate. Reference compound was serially diluted three-fold in DMSO for a total of nine test concentrations, beginning at 3 μM. Percent inhibition was determined and IC50 curves were generated using triplicate wells per concentration of compound.

Structure (SMILES) | EC50
O=C1CN(c2cccc(N3CCOCC3)c2)CCN1CC(O)CN1CCc2ccccc2C1 (centres unmarked) [Compound 12, 1-(3-(3,4-dihydroisoquinolin-2(1H)-yl)-2-hydroxypropyl)-4-(3-morpholinophenyl)piperazin-2-one] | < 100 nM
O=C1CN(c2cncc(N3CCOCC3)c2)CCN1CC(O)CN1CCc2ccccc2C1 (centres unmarked) [Compound 8, 1-(3-(3,4-dihydroisoquinolin-2(1H)-yl)-2-hydroxypropyl)-4-(5-morpholinopyridin-3-yl)piperazin-2-one] | 101 to 1000 nM
O=C1CN(c2ccc(Cl)cc2)CCN1CC(O)CN1CCc2ccccc2C1 (centres unmarked) [Compound 7, 4-(4-chlorophenyl)-1-(3-(3,4-dihydroisoquinolin-2(1H)-yl)-2-hydroxypropyl)piperazin-2-one] | 101 to 1000 nM
O=C1CN(c2cccc(F)c2)CCN1CC(O)CN1CCc2ccccc2C1 (centres unmarked) [Compound 6] | 101 to 1000 nM
O=C1CN(c2cccc3cccnc23)CCN1CC(O)CN1CCc2ccccc2C1 (centres unmarked) [Compound 4, 1-(3-(3,4-dihydroisoquinolin-2(1H)-yl)-2-hydroxypropyl)-4-(quinolin-8-yl)piperazin-2-one] | 101 to 1000 nM
Cc1ccc(N2CCN(CC(O)CN3CCc4ccccc4C3)C(=O)C2)cc1 (centres unmarked) [Compound 15, 1-(3-(3,4-dihydroisoquinolin-2(1H)-yl)-2-hydroxypropyl)-4-(p-tolyl)piperazin-2-one] | 101 to 1000 nM

Further lines, results first:

EC50 | Structure (SMILES)
101 to 1000 nM | O=C1COc2ccccc2N1CC(O)CN1CCc2ccccc2C1 (centres unmarked) [Compound 31, 4-(3-(3,4-dihydroisoquinolin-2(1H)-yl)-2-hydroxypropyl)-2H-benzo[b][1,4]oxazin-3(4H)-one]
101 to 1000 nM | O=C1Cc2ccccc2N1CC(O)CN1CCc2ccccc2C1 (centres unmarked) [Compound 1, 1-(3-(3,4-dihydroisoquinolin-2(1H)-yl)-2-hydroxypropyl)indolin-2-one]
101 to 1000 nM | CN(C)c1ccccc1N1CCN(C[C@H](O)CN2CCc3ccccc3C2)C(=O)C1 [Compound 29]
101 to 1000 nM | O=C1CN(c2ccccc2Cl)CCN1CC(O)CN1CCc2ccccc2C1 (centres unmarked) [Compound 9]
101 to 1000 nM | O=c1cc(Nc2ccccc2)ccn1C[C@H](O)CN1CCc2ccccc2C1 [Compound 19, (R)-1-(3-(3,4-dihydroisoquinolin-2(1H)-yl)-2-hydroxypropyl)-4-(phenylamino)pyridin-2(1H)-one]
